Measured values published in patent US20090137554A1, “1,4,5,6-TETRAHYDRO -PYRROLO[2,3-d]AZEPINES AND -IMIDAZO[4,5-d]AZEPINES AS MODULATORS OF NUCLEAR RECEPTOR ACTIVITY” (Wyeth, priority 2007, published 2009).

Target: T1, Gal4/hFXR fusion protein (Homo sapiens, UniProt Q96RI1)
T1 sequence (Q96RI1 262-486 limits assumed): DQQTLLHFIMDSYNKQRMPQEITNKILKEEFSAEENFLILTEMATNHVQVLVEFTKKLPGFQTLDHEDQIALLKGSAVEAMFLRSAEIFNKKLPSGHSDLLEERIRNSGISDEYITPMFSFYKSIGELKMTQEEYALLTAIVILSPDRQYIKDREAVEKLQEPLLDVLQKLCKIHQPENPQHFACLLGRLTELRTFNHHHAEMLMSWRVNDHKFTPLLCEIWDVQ
Experiment: Gal4/hFXR fusion protein agonist activity in human 293 cells (luciferase reporter)
Assay type: cell-based
Settings: Human 293 stable clone 2 expressing Gal4/hFXR, 24 hours incubation
Description: Characterization of Compounds for Gal4/hFXR Fusion Protein Agonist Activity in Human 293 Cells
• 1. Compounds to be tested are prepared as 2× stocks in assay medium. • 2. […] The supernatant is removed and the cells are resuspended in 1 ml assay medium. The cells are counted and diluted in assay medium to 200,000 cells per ml. The cells are then plated at 10,000 cells per well in Culturplate-96 plates in 50 μL assay medium. The cells are incubated at 37° C. for approximately 1 hour. • 3. […] All assays include 1 uM GW4064 as a reference standard. • 4. Cells are incubated for 24 hours at 37° C.
• 5. The medium is removed, and the cells are lysed in 25 uL lysis buffer (Promega, E3971). • 6. The plates are analyzed for luciferase activity with luciferase assay reagent (Promega E1483). Plates are read on Victor^3V instrument using the protocol “Shuguang Luciferase assay” (dispense volume=100 uL, plate type=“Packard Viewplate”, measurement height=8 mm from bottom of plate, 5 second read per well).
• 1. For agonist single point screening, data are analyzed in Excel. Each compound is tested in triplicate. The fold stimulation of each compound is calculated as RLUcpd/RLUbkgd. • 2. Comparison to GW4064 is made by the equation (RLUcpd/RLUbkgd)/(RLUGW4064/RLUbkgd) • 3. For agonist potency determinations, statistical analysis of the data is performed using a customized Excel/SAS program.

Row | SMILES | EC50 [nM]
1 | CC(C)OC(=O)C1=CN(C(=O)c2cccs2)CC(C)(C)c2cc(C#N)[nH]c21 [Example 7, iso-Propyl 2-cyano-4,4-dimethyl-6-(2-thienylcarbonyl)-1,4,5,6-tetrahydropyrrolo[2,3-d]azepine-8-carboxylate] | 22
2 | CC(C)OC(=O)C1=CN(C(=O)C2CCOCC2)CC(C)(C)c2cc(C#N)[nH]c21 [Example 9, iso-Propyl 2-cyano-4,4-dimethyl-6-(tetrahydro-2H-pyran-4-ylcarbonyl)-1,4,5,6-tetrahydropyrrolo[2,3-d]azepine-8-carboxylate] | 8.9

Further compounds by falling EC50, results first:

Row | EC50 [nM] | SMILES
3 | 86 | CC(C)OC(=O)C1=CN(C(=O)c2ccc(F)c(F)c2)CC2(CCOCC2)c2cc(C#N)[nH]c21 [Example 10, iso-Propyl 2′-cyano-6′-(3,4-difluorobenzoyl)-2,3,5,5′,6,6′-hexahydro-1′H-spiro[pyran-4,4′-pyrrolo[2,3-d]azepine]-8′carboxylate]
4 | 8 | CC(C)OC(=O)C1=CN(C(=O)c2cccc(C(F)(F)F)c2)CC(C)(C)c2cc(C#N)[nH]c21 [Example 8, iso-Propyl 2-cyano-4,4-dimethyl-6-[3-(trifluoromethyl)benzoyl]-1,4,5,6-tetrahydropyrrolo[2,3-d]azepine-8-carboxylate]
5 | 5.3 | CC(C)OC(=O)C1=CN(C(=O)c2ccc(F)c(F)c2)CC(C)(C)c2cc(C#N)[nH]c21 [Example 1, iso-Propyl 2-cyano-6-(3,4-difluorobenzoyl)-4,4-dimethyl-1,4,5,6-tetrahydropyrrolo[2,3-d]azepine-8-carboxylate]
